# Results reported in the Deep4Chem optical property database.
# Assay: photoluminescence quantum yield (fraction); solvent given as SMILES
compound,measurement,setting,value
CCCCCCC(CCCCCC)N1C(=O)c2cccc3c(-c4ccc(OC)c5ccccc45)ccc(c23)C1=O,photoluminescence quantum yield,in CCCCCC,0.33
same,photoluminescence quantum yield,in CCCCCCCCCCCCCC,0.34
same,photoluminescence quantum yield,in CCCCCCCCCCCO,0.23
same,photoluminescence quantum yield,in CCCCO,0.088
same,photoluminescence quantum yield,in CN(C)C=O,0.13
same,photoluminescence quantum yield,in Cc1ccccc1,0.18
same,photoluminescence quantum yield,in ClC(Cl)Cl,0.39
N#Cc1cc(/C=C/c2ccc(N(c3ccccc3)c3ccccc3)cc2)ccc1/C=C/c1ccc(/C=C/c2ccc(N(c3ccccc3)c3ccccc3)cc2)cc1C#N,photoluminescence quantum yield,in ClCCl,0.41
COc1cc(-c2cc(N3CCCCC3)c(C#N)c3c2-c2cccc4cccc-3c24)cc(OC)c1OC,photoluminescence quantum yield,in O,0.28
C=CCOc1nnc(OCCC(F)(F)C(F)(F)C(F)(F)C(F)(F)C(F)(F)C(F)(F)C(F)(F)C(F)(F)F)nn1,photoluminescence quantum yield,in ClCCl,0.16
same,photoluminescence quantum yield,in OCC(F)(F)F,0.02
COc1ccc(C(=O)NC(C)(C)C)c2c1ccc1c3ccccc3c3ccccc3c12,photoluminescence quantum yield,in ClCCl,0.1
O=C1c2ccccc2S(=O)(=O)c2ccc(-n3c4ccccc4c4ccccc43)cc21,photoluminescence quantum yield,in c1cc(-c2cccc(-n3c4ccccc4c4ccccc43)c2)cc(-n2c3ccccc3c3ccccc32)c1,0.296
F[B-]1(F)OC(c2ccc(C(F)(F)F)cc2)=Cc2cc(Cl)nc[n+]21,photoluminescence quantum yield,in C1CCOC1,0.01
same,photoluminescence quantum yield,in CC#N,0.01
same,photoluminescence quantum yield,in Cc1ccccc1,0.04
same,photoluminescence quantum yield,in ClC(Cl)Cl,0.01
same,photoluminescence quantum yield,in ClCCl,0.01
COc1nc(Nc2ccc3c4cccc5cccc(c6cccc2c63)c54)nc(OC)n1,photoluminescence quantum yield,in C1COCCO1,0.51
same,photoluminescence quantum yield,in CC#N,0.43
same,photoluminescence quantum yield,in CCCCOCCCC,0.46
same,photoluminescence quantum yield,in CCOC(C)=O,0.47
COc1ccc(C2=N/C(=C\c3ccc(C#N)cc3)C(=O)N2)cc1OC,photoluminescence quantum yield,in C1COCCO1,0.189
CCOCCOCCOC(=O)/C=C/C1=CC2=C(c3c(C)cc(C)cc3C)c3cccn3[B-](F)(F)[N+]2=C1,photoluminescence quantum yield,in ClCCl,0.35
Cc1ccc(-c2ccc(/C=C/c3ccc([N+](=O)[O-])cc3)cn2)nc1,photoluminescence quantum yield,in CC#N,0.045
CN(C)c1ccc2cc(C3=[O+][B-](F)(F)OC(c4ccc(C#N)cc4)=C3)ccc2c1,photoluminescence quantum yield,in C1CCOC1,0.56
same,photoluminescence quantum yield,in CC#N,0.007
same,photoluminescence quantum yield,in CC(C)=O,0.18
same,photoluminescence quantum yield,in CS(C)=O,0.007
same,photoluminescence quantum yield,in Cc1ccccc1,0.62
same,photoluminescence quantum yield,in ClC(Cl)Cl,0.94
same,photoluminescence quantum yield,in ClCCl,0.87
CCOC(=O)c1ccccc1-c1c2ccc(=O)cc-2oc2cc(OC(=O)[C@H](CSCc3ccc(C)cc3)NC(=O)OC(C)(C)C)ccc12,photoluminescence quantum yield,in C1CCOC1,0.006
same,photoluminescence quantum yield,in CC#N,0.004
same,photoluminescence quantum yield,in CCO,0.043
same,photoluminescence quantum yield,in CS(C)=O,0.025
CC(C)(C)c1cc(C(C)(C)C)c(-c2nnc(-c3ccc(-n4c5ccccc5c5ccccc54)cc3)o2)c(C(C)(C)C)c1,photoluminescence quantum yield,in Cc1ccccc1,0.62
FC(F)(F)C(F)(F)C(F)(F)c1nc2c(-c3ccsc3)cc3c4cc(-c5ccsc5)c5nc(C(F)(F)C(F)(F)C(F)(F)F)nc6c(-c7ccsc7)cc(c7cc(-c8ccsc8)c(n1)c2c37)c4c56,photoluminescence quantum yield,in C1CCOC1,0.62
CCCCCCCCCCCCOc1cc2c(cc1OCCCCCCCCCCCC)C1=C3C(=O)N4C=Cc5cc(OCCCCCCCCCCCC)c(OCCCCCCCCCCCC)cc5C4=C3C(=O)N1C=C2,photoluminescence quantum yield,in CN(C)C=O,0.7
same,photoluminescence quantum yield,in ClC(Cl)Cl,0.8
COc1ccc(-c2c3ccccc3c(-c3ccc(OC)cc3)c3cc4sc(C)cc4cc23)cc1,photoluminescence quantum yield,in ClCCl,0.52
N#CC(C#N)=Cc1ccc(-c2ccc(N(c3ccccc3)c3ccccc3)cc2)s1,photoluminescence quantum yield,in ClC(Cl)Cl,0.18
CC(=O)c1c(N[C@@H](Cc2ccccc2)C(=O)O)c2ccc(N(C)C)cc2oc1=O,photoluminescence quantum yield,in ClCCl,0.0026
CCOC(=O)C1=C(C)NC2=C(C(=O)c3ccccc32)C1c1ccc(N(C)C)cc1 (centres undefined),photoluminescence quantum yield,in C1CCOC1,0.34
same,photoluminescence quantum yield,in C1COCCO1,0.43
same,photoluminescence quantum yield,in CC#N,0.3
same,photoluminescence quantum yield,in CCO,0.092
same,photoluminescence quantum yield,in CN(C)C=O,0.33
same,photoluminescence quantum yield,in CO,0.035
same,photoluminescence quantum yield,in CS(C)=O,0.29
same,photoluminescence quantum yield,in ClC(Cl)(Cl)Cl,0.16
same,photoluminescence quantum yield,in ClC(Cl)Cl,0.44
same,photoluminescence quantum yield,in ClCCl,0.4
COc1ccc(-n2c3c4ccccc4nc(-c4ccc(C#N)cc4)c3c3c2c2c(-c4ccc(C#N)cc4)nc4ccccc4c2n3-c2ccc(OC)cc2)cc1,photoluminescence quantum yield,in ClC(Cl)Cl,0.074
COc1ccc(/C=C/C2=[O+][B-](F)(F)OC(/C=C/c3ccc(OC)cc3)=C2c2ccccc2)cc1,photoluminescence quantum yield,in CC#N,0.42
same,photoluminescence quantum yield,in CC(C)=O,0.41
same,photoluminescence quantum yield,in CCOC(C)=O,0.34
same,photoluminescence quantum yield,in CCOCC,0.27
same,photoluminescence quantum yield,in ClC(Cl)(Cl)Cl,0.24
same,photoluminescence quantum yield,in ClCCl,0.41
CCCCCCCCOc1ccc(-c2c3c4n(c(-c5ccc(OCCCCCCCC)cc5)c3c3n2[B-](F)(F)[n+]2c(ccc5cc(C(C)(C)C)ccc52)C=3C#N)[B-](F)(F)[n+]2c(ccc3cc(C(C)(C)C)ccc32)C=4C#N)cc1,photoluminescence quantum yield,in ClC(Cl)Cl,0.59
CC(C)(C)C1CCC(=CS/C=C/c2ccc(-c3ccc(/C=C/SC=C4CCC(C(C)(C)C)CC4)cc3)cc2)CC1 (centres undefined),photoluminescence quantum yield,in ClCCl,0.233
CN(C)c1ccc(/C=C/c2ccncn2)cc1,photoluminescence quantum yield,in ClCCl,0.15
Fc1nc(F)c(F)c(/C=C2/C(c3c(F)c(F)nc(F)c3F)=Cc3ccccc32)c1F,photoluminescence quantum yield,in CC#N,0.01
CC/[NH+]=c1\cc2oc3cc(NCCNC(=O)C(NC(=O)OC(C)(C)C)C(C)C)c4ccccc4c3nc-2cc1C (centres undefined),photoluminescence quantum yield,in CCO,0.35
same,photoluminescence quantum yield,in O,0.48
CN(C)c1ccc(C(=O)Nc2ccc([N+](=O)[O-])cc2)cc1,photoluminescence quantum yield,in C1CCCCC1,0.0001
same,photoluminescence quantum yield,in C1CCOC1,0.0003
same,photoluminescence quantum yield,in CC#N,0.0002
same,photoluminescence quantum yield,in CCOCC,0.0006
COc1ccc(-c2nc(N)nc(C#N)c2C#N)cc1OC,photoluminescence quantum yield,in C1COCCO1,0.0073
same,photoluminescence quantum yield,in CC#N,0.0893
same,photoluminescence quantum yield,in CC(C)=O,0.0272
same,photoluminescence quantum yield,in CCO,0.0105
same,photoluminescence quantum yield,in CCOC(C)=O,0.0185
same,photoluminescence quantum yield,in CO,0.0143
Cc1cc(-c2ccc(-c3ccccc3)cc2)nc(-c2ccc(-n3c4ccccc4c4ccccc43)cc2)n1,photoluminescence quantum yield,in C1CCOC1,0.22
same,photoluminescence quantum yield,in CN(C)C=O,0.24
same,photoluminescence quantum yield,in Cc1ccccc1,0.24
same,photoluminescence quantum yield,in ClC(Cl)Cl,0.43
O=c1c2cc(F)c(O)cc2oc2cc(O)c(F)cc12,photoluminescence quantum yield,in CCO,0.26
CC(C)(C)c1ccc(C2=C(Br)C3=C(c4ccccc4)c4c(Br)c(-c5ccc(C(C)(C)C)cc5)c(-c5ccc(C(C)(C)C)cc5)n4[B-](F)(F)[N+]3=C2c2ccc(C(C)(C)C)cc2)cc1,photoluminescence quantum yield,in C1CCCCC1,0.13
same,photoluminescence quantum yield,in C1CCOC1,0.11
same,photoluminescence quantum yield,in CC#N,0.03
same,photoluminescence quantum yield,in Cc1ccccc1,0.1
same,photoluminescence quantum yield,in ClCCl,0.09
CC/[NH+]=c1\cc2oc3cc(NCCO)c4ccccc4c3nc-2cc1C,photoluminescence quantum yield,in CCO,0.49
same,photoluminescence quantum yield,in O,0.36
COc1ccccc1-c1nc(-c2ccccc2)c2ccccn12,photoluminescence quantum yield,in CC#N,0.38
same,photoluminescence quantum yield,in ClCCl,0.385
Cc1ccc(C2=C3C=CC(c4ccccc4)=[N+]3[B-](F)(F)n3c(Cl)ccc32)cc1,photoluminescence quantum yield,in C1CCCCC1,0.076
same,photoluminescence quantum yield,in C1CCOC1,0.084
same,photoluminescence quantum yield,in C1COCCO1,0.079
same,photoluminescence quantum yield,in CCOC(C)=O,0.046
same,photoluminescence quantum yield,in CO,0.037
same,photoluminescence quantum yield,in Cc1ccccc1,0.13
same,photoluminescence quantum yield,in ClC(Cl)Cl,0.095
CCCC1(CCC)c2cc(-c3ccc(C(C)(C)CC)cc3)ccc2-c2ccc(-c3ccc(C(C)(C)CC)cc3)cc21,photoluminescence quantum yield,in C1CCCCC1,0.92
c1ccc2cc(-n3c4ccccc4c4ccccc43)ccc2c1,photoluminescence quantum yield,in C1CCCCC1,0.48
same,photoluminescence quantum yield,in CCOC(C)=O,0.46
same,photoluminescence quantum yield,in CO,0.32
COc1cc2oc(=O)c3c4ccc(C(=O)c5ccccc5)cc4c4ccc5cccc6c(c1)c2c3c4c56,photoluminescence quantum yield,in C1CCOC1,0.448
Cc1cccc(C2=Cc3c4ccccc4cc[n+]3[B-](F)(F)O2)c1,photoluminescence quantum yield,in ClC(Cl)Cl,0.06
CCN(CC)c1ccc2cc(/C=C/C(=O)/C=C(O)/C=C/c3cc4ccc(N(CC)CC)cc4oc3=O)c(=O)oc2c1,photoluminescence quantum yield,in C1CCOC1,0.62
same,photoluminescence quantum yield,in C1COCCO1,0.66
same,photoluminescence quantum yield,in CC#N,0.06
same,photoluminescence quantum yield,in CC(C)=O,0.2
same,photoluminescence quantum yield,in CCOC(C)=O,0.56
same,photoluminescence quantum yield,in CS(C)=O,0.05
same,photoluminescence quantum yield,in Cc1ccccc1,0.76
same,photoluminescence quantum yield,in ClC(Cl)Cl,0.45
same,photoluminescence quantum yield,in ClCCl,0.44
CN(C)c1ccc(/C=C/c2nc3cc(Br)ccc3nc2-c2ccccc2)cc1,photoluminescence quantum yield,in C1COCCO1,0.14
same,photoluminescence quantum yield,in CC#N,0.01
same,photoluminescence quantum yield,in ClCCl,0.17
c1ccc([B-]2(c3ccccc3)Oc3ccc4ccccc4c3-c3c4ccccc4nc[n+]32)cc1,photoluminescence quantum yield,in Cc1ccccc1,0.25
COc1cc(OC)c2c(c1)C(=O)c1ccc(OC)cc1-2,photoluminescence quantum yield,in C1CCCCC1,0.0095
same,photoluminescence quantum yield,in CC#N,0.0012
same,photoluminescence quantum yield,in CCO,0
CCCCN1C(=O)c2cccc3c(N(C)C)ccc(c23)C1=O,photoluminescence quantum yield,in Cc1ccccc1,0.95
CCCC1=Cc2nc1ccc1[nH]c(cc1CCC)c1nc(c(OC)cc3[nH]c2cc3CCC)C(CCC)=C1,photoluminescence quantum yield,in Cc1ccccc1,0.18
CC(=O)c1ccc(-c2cc(C)[o+]c(C)c2)cc1,photoluminescence quantum yield,in ClCCl,0.03
CN(C)c1cc(-c2ccc(C#Cc3ccncc3)cc2)cc2ccccc12,photoluminescence quantum yield,in ClCCl,0.83
COc1ccc(C#Cc2ccc(C#N)cc2)cc1OC,photoluminescence quantum yield,in C1COCCO1,0.16
same,photoluminescence quantum yield,in CC#N,0.13
same,photoluminescence quantum yield,in CCCCCC,0.16
same,photoluminescence quantum yield,in CCCCCCC,0.16
same,photoluminescence quantum yield,in CCCO,0.13
same,photoluminescence quantum yield,in CCOC(C)=O,0.13
same,photoluminescence quantum yield,in CS(C)=O,0.21
same,photoluminescence quantum yield,in ClC(Cl)Cl,0.18
same,photoluminescence quantum yield,in ClCCl,0.22
Fc1ccc(C#Cc2c(C#Cc3ccc(F)cc3)c(C#Cc3ccc(F)cc3)c(C#Cc3ccc(F)cc3)c(C#Cc3ccc(F)cc3)c2C#Cc2ccc(F)cc2)cc1,photoluminescence quantum yield,in ClCCl,0.25
C1=Cc2ccc(N(c3ccccc3)c3ccccc3)cc2Cc2cc(N(c3ccccc3)c3ccccc3)ccc21,photoluminescence quantum yield,in ClCCl,0.99
O=C1c2ccccc2-c2ccccc21,photoluminescence quantum yield,in C1CCCCC1,0.0004
same,photoluminescence quantum yield,in CC#N,0.027
same,photoluminescence quantum yield,in CCO,0.0009
same,photoluminescence quantum yield,in c1ccccc1,0.0078
N#Cc1cc(-n2c3ccccc3c3ccccc32)c(-n2c3ccccc3c3ccccc32)cc1-c1cc(-n2c3ccccc3c3ccccc32)c(-n2c3ccccc3c3ccccc32)cc1C#N,photoluminescence quantum yield,in Cc1ccccc1,0.46
